A word on the inhibition: it is the change of the read-out against control, counted positive when it falls. A low value points to a weak effect.

The values that follow come from patent US20120270237A9, “METHODS FOR THE IDENTIFICATION OF KINASE INTERACTING MOLECULES AND FOR THE PURIFICATION OF KINASE PROTEINS” (Cellzone AG, priority 2009, published 2012).

Holding throughout (test): Kinobeads competition binding, HeLa Placenta lysate mix
Set-up in all cases: endogenous in cells
What all share (conditions): 10 μM free compound

One assay has as its target CDC2 (Homo sapiens, UniProt P06493). Summed up:
(§1)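 Read-out is iTRAQ reporter ion quantification by nano-LC-MS/MS, comparing a lysate aliquot pretreated with 10 μM free compound to a DMSO solvent control. Kinases not bound by free compound were pulled down on beads carrying the immobilized compound, separated by SDS-PAGE and digested with trypsin.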

For a further assay, the target named is T1, IRAK4 (Homo sapiens, UniProt Q9NWZ3).
T1 sequence (Q9NWZ3 1-460): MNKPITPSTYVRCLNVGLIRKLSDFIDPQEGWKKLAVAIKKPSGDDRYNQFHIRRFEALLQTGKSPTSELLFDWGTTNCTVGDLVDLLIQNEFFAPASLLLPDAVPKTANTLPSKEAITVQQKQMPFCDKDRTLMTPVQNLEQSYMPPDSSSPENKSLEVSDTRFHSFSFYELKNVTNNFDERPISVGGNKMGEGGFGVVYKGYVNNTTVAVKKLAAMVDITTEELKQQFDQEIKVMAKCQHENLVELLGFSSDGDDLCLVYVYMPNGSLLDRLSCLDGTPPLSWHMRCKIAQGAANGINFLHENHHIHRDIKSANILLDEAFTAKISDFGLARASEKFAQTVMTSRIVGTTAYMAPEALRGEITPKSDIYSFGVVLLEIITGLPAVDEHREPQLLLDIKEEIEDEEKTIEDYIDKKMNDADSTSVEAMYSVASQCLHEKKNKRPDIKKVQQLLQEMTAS
A digest of the protocol: as §1

Another assay has as its target T2, MAP3K2 (Homo sapiens, UniProt Q9Y2U5).
T2 sequence (Q9Y2U5 1-619): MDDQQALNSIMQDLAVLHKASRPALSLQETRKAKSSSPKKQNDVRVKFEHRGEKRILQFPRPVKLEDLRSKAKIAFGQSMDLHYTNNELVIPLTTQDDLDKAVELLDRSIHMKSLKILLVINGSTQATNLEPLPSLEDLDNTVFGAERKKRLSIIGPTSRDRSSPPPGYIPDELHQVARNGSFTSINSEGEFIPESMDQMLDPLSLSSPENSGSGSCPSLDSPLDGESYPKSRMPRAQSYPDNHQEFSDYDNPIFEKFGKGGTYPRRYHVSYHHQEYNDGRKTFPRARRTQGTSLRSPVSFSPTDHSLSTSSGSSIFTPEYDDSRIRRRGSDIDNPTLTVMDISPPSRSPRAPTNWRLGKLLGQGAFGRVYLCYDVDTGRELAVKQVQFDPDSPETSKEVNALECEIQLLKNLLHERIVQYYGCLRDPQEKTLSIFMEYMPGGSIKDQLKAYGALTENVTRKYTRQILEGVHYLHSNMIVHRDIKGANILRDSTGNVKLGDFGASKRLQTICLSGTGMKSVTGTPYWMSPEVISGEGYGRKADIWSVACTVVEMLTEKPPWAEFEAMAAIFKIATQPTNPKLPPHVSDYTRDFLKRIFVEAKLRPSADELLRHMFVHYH
Summed up:
as §1

A further assay concerns the target T3, MAP3K5 (Homo sapiens, UniProt Q99683).
T3 sequence (Q99683 1-1374): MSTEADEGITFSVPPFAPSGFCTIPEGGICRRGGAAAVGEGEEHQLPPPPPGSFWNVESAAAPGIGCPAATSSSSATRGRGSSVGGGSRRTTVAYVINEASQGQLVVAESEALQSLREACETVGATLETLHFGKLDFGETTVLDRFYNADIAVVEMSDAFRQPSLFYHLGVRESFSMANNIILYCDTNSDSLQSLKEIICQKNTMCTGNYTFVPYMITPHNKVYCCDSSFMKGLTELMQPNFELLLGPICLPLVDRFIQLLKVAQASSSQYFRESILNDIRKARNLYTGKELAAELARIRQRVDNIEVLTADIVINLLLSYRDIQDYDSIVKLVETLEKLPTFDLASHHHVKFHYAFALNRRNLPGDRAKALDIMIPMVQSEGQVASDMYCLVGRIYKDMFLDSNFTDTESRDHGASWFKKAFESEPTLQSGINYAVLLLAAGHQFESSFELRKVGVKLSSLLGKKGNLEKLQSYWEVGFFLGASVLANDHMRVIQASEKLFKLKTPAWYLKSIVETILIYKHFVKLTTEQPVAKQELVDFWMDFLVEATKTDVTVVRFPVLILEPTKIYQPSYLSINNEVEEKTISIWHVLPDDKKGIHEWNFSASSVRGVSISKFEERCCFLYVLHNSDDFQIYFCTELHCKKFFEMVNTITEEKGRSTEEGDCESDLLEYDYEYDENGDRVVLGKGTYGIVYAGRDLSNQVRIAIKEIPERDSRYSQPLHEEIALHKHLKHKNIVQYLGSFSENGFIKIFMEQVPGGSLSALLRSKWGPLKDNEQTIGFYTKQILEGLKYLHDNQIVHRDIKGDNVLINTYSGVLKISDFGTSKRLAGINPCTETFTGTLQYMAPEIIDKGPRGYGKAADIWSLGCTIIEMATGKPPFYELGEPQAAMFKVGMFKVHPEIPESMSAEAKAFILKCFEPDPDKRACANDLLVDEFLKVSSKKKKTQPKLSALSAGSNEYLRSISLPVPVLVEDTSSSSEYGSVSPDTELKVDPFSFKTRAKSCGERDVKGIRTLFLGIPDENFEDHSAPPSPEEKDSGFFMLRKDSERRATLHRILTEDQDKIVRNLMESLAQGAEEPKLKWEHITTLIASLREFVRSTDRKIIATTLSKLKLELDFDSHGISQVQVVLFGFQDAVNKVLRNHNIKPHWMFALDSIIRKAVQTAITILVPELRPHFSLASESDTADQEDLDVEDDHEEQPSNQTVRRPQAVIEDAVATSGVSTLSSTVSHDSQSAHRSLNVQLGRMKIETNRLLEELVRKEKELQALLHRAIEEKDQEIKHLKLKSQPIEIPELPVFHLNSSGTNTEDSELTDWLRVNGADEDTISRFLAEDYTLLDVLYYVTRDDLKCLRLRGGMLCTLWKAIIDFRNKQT
A digest of the protocol: as §1

In a further assay the target is TYK2 (Homo sapiens, UniProt P29597). A digest of the protocol:
as §1

Sequence of CDC2 (P06493 whole entry): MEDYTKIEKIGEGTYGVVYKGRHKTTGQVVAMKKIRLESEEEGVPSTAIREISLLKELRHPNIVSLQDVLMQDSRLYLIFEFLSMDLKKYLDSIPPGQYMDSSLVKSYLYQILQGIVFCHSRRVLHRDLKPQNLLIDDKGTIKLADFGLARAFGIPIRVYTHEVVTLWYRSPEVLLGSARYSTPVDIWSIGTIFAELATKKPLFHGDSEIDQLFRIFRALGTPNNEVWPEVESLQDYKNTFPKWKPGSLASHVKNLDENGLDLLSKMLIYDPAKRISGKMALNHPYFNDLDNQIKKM
Sequence of TYK2 (P29597 whole entry): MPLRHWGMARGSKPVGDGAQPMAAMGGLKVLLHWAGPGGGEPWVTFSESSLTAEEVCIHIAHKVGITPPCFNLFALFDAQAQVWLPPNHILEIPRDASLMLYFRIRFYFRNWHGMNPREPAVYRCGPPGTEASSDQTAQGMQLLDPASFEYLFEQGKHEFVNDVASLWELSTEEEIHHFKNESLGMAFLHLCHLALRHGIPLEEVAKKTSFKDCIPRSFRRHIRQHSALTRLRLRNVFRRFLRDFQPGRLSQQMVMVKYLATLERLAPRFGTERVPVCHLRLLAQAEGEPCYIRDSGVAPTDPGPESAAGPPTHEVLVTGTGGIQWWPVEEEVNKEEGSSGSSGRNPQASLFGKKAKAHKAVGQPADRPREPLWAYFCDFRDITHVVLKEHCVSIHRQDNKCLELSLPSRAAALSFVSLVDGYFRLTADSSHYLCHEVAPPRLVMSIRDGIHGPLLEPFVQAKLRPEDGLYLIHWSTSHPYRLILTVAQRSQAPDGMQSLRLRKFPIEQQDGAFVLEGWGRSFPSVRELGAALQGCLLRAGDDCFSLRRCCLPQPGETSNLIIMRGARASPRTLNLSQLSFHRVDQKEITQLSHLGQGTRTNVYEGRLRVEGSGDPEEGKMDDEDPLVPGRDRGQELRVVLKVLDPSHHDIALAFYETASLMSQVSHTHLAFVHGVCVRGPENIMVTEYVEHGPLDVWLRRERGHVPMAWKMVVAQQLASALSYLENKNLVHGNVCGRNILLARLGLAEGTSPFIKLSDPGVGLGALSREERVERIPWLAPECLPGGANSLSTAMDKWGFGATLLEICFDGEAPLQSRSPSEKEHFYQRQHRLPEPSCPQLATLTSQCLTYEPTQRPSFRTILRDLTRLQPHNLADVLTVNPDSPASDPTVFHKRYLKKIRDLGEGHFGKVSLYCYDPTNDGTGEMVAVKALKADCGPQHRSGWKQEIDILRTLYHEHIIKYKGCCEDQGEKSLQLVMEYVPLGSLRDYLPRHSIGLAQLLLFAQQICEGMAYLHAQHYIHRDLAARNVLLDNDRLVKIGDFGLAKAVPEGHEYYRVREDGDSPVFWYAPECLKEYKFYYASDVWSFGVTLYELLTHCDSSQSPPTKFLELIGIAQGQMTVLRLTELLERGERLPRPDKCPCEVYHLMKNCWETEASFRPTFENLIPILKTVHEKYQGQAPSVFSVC

For `CS(=O)(=O)Nc1ccccc1Nc1nc(Nc2cccc(OCCN)c2)ncc1Cl` [CZC31326, N-(2-(2-(3-(2-aminoethoxy)phenylamino)-5-chloropyrimidin-4-ylamino)phenyl)methanesulfonamide], the values for the inhibition at 10 µM at CDC2, on MAP3K2 and on MAP3K5 were 93.4%, 93.9% and 86%, respectively. Besides, the Competition % at IRAK4 and on TYK2 was 93.8% throughout.
